Consider three compounds from US6551998B1, “Antimicrobial agents” (University of Louisville Research Foundation, Inc., priority 1999, dated 2003).

Converted amounts (≈) assume the structure as drawn. Ends that are not written are not given here.

The subject of assay [1] is Fusarium moniliforme. The following applies: cited from earlier work.
For assay [2], the system named is Fusarium oxysporum. As to conditions: cited from earlier work.
The test system of assay [3] is Methicillin resistant Staphylococcus aureus (ATCC 33591). The format is cell-based. The following applies: for IC50 / MIC: ATCC 33591. As to the method:
(§1) The antimicrobial compounds of the present invention were assayed using a standard microdilution assay against gram-positive bacteria Staphylococcus aureus (strain used: ATTC 29213) and methicillin-resistant strain used ATCC 33591) and the gram-negative bacteria Pseudomonas aeruginosa (strain used ATCC27853). The samples were assayed against 1-5×10^5 colony forming units, in Mueller-Hinton broth, at 37° C. The activity was determined following a 21 hour incubation. The IC50 values were calculated using sigmoidal curve fitting software. (Graphpad™, ISI Software, San Diego, Calif.) and correspond to the sample concentration which inhibits 50 percent of bacterial growth. The minimum inhibitory concenttration (MIC) is defined as the lowest concentration of sample at which no growth is detected by optical density between

Assay [4] deals with Pseudomonas aeruginosa (ATCC27853). The format is cell-based. The following applies: for IC50 / MIC: ATCC27853, 21 h. As for the experimental part:
as §1

Take “Cecropin A: Cecropins are cationic linear peptides isolated from the hemolymph of the giant silk moth; insect-derived antimicrobial peptide (KWKLFKKIEKVGQNIRDGIIKAGPAVAVVGQATQIAK; ends and bridges not checked; UniProt P01507 27-63, looked up)”: the “concentration giving total killing” value in assay [1] and in assay [2] was 12.4 µg/mL each time.
In assay [3], `CSCCC(NCC(N)Cc1ccc2ccccc2c1)C(=O)NC(C)(C)C(=O)NC(CNC(CC(C)C)C(=O)O)Cc1ccccc1` (stereo not drawn) [Compound 14, H-2-Nalψ[CH2NH]Met-Aib-Pheψ[CH2NH]Leu-OH] returned an IC50 of 3 µg/mL (≈ 4.52 µM) and an MIC of 8 to 16 µg/mL. Further, the “activity against MRSA (in words)” value in assay [3] (gram-positive organism) is listed as “also active”. In assay [4], this compound displayed an IC50 of 20 µg/mL (≈ 30.1 µM) and an MIC of 31 to 62 µg/mL. Also, the “activity against Pseudomonas aeruginosa (in words)” value in assay [4] (gram negative organism) is given as “good potency”.
In the case of `CC(C)C[C@H](NC[C@H](Cc1ccccc1)NC(=O)[C@@H](NC(=O)[C@H](CCCCN)NC[C@@H](N)Cc1ccc2ccccc2c1)C(C)C)C(=O)O` [Compound 2, H-2-Nalψ[CH2NH]Lys-Val-Pheψ[CH2NH]Leu-OH], in assay [3], the IC50 stood at 69 µg/mL (≈ 102 µM) and the MIC was in the range of 125 to 250 µg/mL. In assay [4], this compound displayed an IC50 of 58 µg/mL (≈ 85.9 µM) and an MIC of 80 to 152 µg/mL.

The term IC50 denotes the midpoint of a concentration-inhibition curve. A higher IC50 goes with weaker potency. A word on the MIC: it is the lowest concentration found to suppress growth. A lower MIC goes with greater potency.
